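All cell lines were grown in 96-well plates and treated with compound for 48 hours. TGI denotes the concentration required for complete inhibition of growth.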
Columns and labels:
Experiment in all cases: NCI tumour cell line growth inhibition, 48 h
786-0 renal = system: 786-0 renal
A498 renal = system: A498 renal
A549 NSCLC = system: A549 NSCLC
ACHN renal = system: ACHN renal
CAKI-1 renal = system: CAKI-1 renal
CCRF-CEM leukemia = system: CCRF-CEM leukemia
COLO 205 colon = system: COLO 205 colon
DLD-1 colon = system: DLD-1 colon
DMS 114 small cell lung = system: DMS 114 small cell lung
DMS 273 small cell lung = system: DMS 273 small cell lung
EKVX NSCLC = system: EKVX NSCLC
HCC-2998 colon = system: HCC-2998 colon
HCT-116 colon = system: HCT-116 colon
HCT-15 colon = system: HCT-15 colon
HL-60(TB) leukemia = system: HL-60(TB) leukemia
HOP-18 NSCLC = system: HOP-18 NSCLC
HOP-62 NSCLC = system: HOP-62 NSCLC
HOP-92 NSCLC = system: HOP-92 NSCLC
HT29 colon = system: HT29 colon
IGROV1 ovarian = system: IGROV1 ovarian
K-562 leukemia = system: K-562 leukemia
KM12 colon = system: KM12 colon
KM20L2 colon = system: KM20L2 colon
LOX IMVI melanoma = system: LOX IMVI melanoma
LXFL 529 NSCLC = system: LXFL 529 NSCLC
M14 melanoma = system: M14 melanoma
M19-MEL melanoma = system: M19-MEL melanoma
MALME-3M melanoma = system: MALME-3M melanoma
MOLT-4 leukemia = system: MOLT-4 leukemia
NCI-H226 lung = system: NCI-H226 lung
NCI-H23 lung = system: NCI-H23 lung
NCI-H460 lung = system: NCI-H460 lung
NCI-H522 lung = system: NCI-H522 lung
OVCAR-3 ovarian = system: OVCAR-3 ovarian
OVCAR-4 ovarian = system: OVCAR-4 ovarian
OVCAR-5 ovarian = system: OVCAR-5 ovarian
OVCAR-8 ovarian = system: OVCAR-8 ovarian
RPMI-8226 leukemia = system: RPMI-8226 leukemia
RXF 393 renal = system: RXF 393 renal
RXF-631 renal = system: RXF-631 renal
SF-268 CNS = system: SF-268 CNS
SF-295 CNS = system: SF-295 CNS
SF-539 CNS = system: SF-539 CNS
SK-MEL-2 melanoma = system: SK-MEL-2 melanoma
SK-MEL-28 melanoma = system: SK-MEL-28 melanoma
SK-MEL-5 melanoma = system: SK-MEL-5 melanoma
SK-OV-3 ovarian = system: SK-OV-3 ovarian
SN12C renal = system: SN12C renal
SNB-19 CNS = system: SNB-19 CNS
SNB-75 CNS = system: SNB-75 CNS
SNB-78 CNS = system: SNB-78 CNS
SR leukemia = system: SR leukemia
SW-620 colon = system: SW-620 colon
TK-10 renal = system: TK-10 renal
U251 CNS = system: U251 CNS
UACC-257 melanoma = system: UACC-257 melanoma
UACC-62 melanoma = system: UACC-62 melanoma
UO-31 renal = system: UO-31 renal
XF 498 CNS = system: XF 498 CNS

Measured: TGI

CNC(=O)OCc1nc(SSc2nc(COC(=O)NC)c(COC(=O)NC)n2C)n(C)c1COC(=O)NC
> 100 µM: all assays above

CCOC1c2nc3ccccc3nc2-c2ccccc2N1C(C)=O (stereo not given)
not listed: LOX IMVI melanoma | MALME-3M melanoma | NCI-H226 lung | NCI-H522 lung | OVCAR-5 ovarian | SF-268 CNS | SK-MEL-5 melanoma | TK-10 renal
> 100 µM: all other assays above

Reference: PubChem BioAssay (NCI)
